Measured values as given in US5214046A, “Substituted aminoalkoxybenzene anti-fungicidal compositions and use” (Hoffmann-La Roche Inc., priority 1989, dated 1993).
pIC50: −log10 of the molar value. Structures can show the parent of a compound that is named as a salt. Where two headings read alike, the source gives them in different places.

Columns and labels:
[1] = biological target: 2,3-epoxysqualene-lanosterol cyclase (Candida albicans, UniProt Q04782); experiment: Inhibition of 2,3-epoxysqualene-lanosterol cyclase from Candida albicans (cell-free extract, 14C-squalene epoxide); format: biochemical; conditions: for IC50: C. albicans cell-free extract, pH 6.9, 30°, 1 hour, read-out: IC50 (converted)
Chain of 2,3-epoxysqualene-lanosterol cyclase (Q04782 whole entry): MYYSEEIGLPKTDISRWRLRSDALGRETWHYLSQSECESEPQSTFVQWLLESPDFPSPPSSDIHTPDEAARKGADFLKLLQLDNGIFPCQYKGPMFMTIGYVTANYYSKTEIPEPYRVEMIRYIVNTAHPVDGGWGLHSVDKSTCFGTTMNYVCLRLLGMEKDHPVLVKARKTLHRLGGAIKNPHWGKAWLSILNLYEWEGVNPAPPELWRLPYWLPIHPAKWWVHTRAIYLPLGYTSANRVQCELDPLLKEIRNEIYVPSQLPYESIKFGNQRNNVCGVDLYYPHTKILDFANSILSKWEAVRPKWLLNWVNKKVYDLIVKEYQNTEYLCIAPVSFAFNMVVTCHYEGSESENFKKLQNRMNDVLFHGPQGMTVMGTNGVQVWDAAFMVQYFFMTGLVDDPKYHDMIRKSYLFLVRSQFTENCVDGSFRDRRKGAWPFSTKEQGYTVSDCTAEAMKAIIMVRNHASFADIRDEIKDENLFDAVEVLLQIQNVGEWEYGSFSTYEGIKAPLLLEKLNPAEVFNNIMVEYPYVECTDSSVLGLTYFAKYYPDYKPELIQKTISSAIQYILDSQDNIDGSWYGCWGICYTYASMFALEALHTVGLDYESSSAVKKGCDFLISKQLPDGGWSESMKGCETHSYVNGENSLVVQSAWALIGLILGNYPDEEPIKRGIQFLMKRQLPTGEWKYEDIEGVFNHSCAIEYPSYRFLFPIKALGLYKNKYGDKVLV

[2] = Acute toxicity in the case of subcutaneous administration to mice; conditions: mouse, in vivo, sc
Method: The IC50 values are determined graphically and are given in μg of test substance per ml. Table I contains IC50 values determined in the above test for representative members of the class of compound defined by formula I as well as data concerning the acute toxicity in the case of subcutaneous administration to mice (LD50 in mg/kg).

Candida albicans = experiment: Agar dilution method, MIC alone and in combination with sterol biosynthesis inhibitors, FIC; format: cell-based; conditions: for MIC: Candida albicans, 48 h, alone, 37° C., 2 days

Compound	pIC50 [1]	IC50 [1]	other results
CN(C)CCCCOc1ccc(C(=O)c2ccccc2)cc1 [Compound 1, 4-[[4-(dimethylamino)butyl]oxy]benzophenone]	5.54	–	LD50 [2]: > 4000 mg/kg
CN(C)CCCCCOc1ccc(C(=O)c2ccccc2)cc1 [Compound 2, 4-[(5-(dimethylamino)pentyl)oxy]benzophenone]	–	0.514 µM	–
CN(C)CCCCCCOc1ccc(C(=O)c2ccccc2)cc1 [Compound 3, 4-[(6-dimethylamino)hexyl)oxy]benzophenone hydrochloride]	–	0.461 µM	–
CCN(CC)CCCCCCOc1cccc(C(=O)CCc2ccccc2)c1 [Compound 4, 3'-[[6-(diethylamino)hexyl]oxy]-3-phenypropiophenone]	–	1.57 µM	–
CN(C)CCCCCCOc1ccc(C(=O)/C=C/c2ccccc2)cc1 [Compound 5, (E)-4'-[[6-(dimethylamino)hexyl]oxy]-3-phenylacrylophenone]	–	1.71 µM	–
CN(C)CCCCCCOc1ccc(C(=O)Cc2ccccc2)cc1 [Compound 6]	–	0.191 µM	–
CCN(CC)CCCCCCOc1ccc(C(=O)CCc2ccccc2)cc1 [Compound 7, 4'-[[6-(diethylamino)hexyl]oxy]-3-phenylpropiophenone]	–	0.708 µM	–
CN(C)CCCCCCOc1ccc(C(=O)CCc2ccccc2)cc1 [Compound 8, 4'-[[6-(dimethylamino)hexyl]oxy]-3-phenylpropiophenone]	–	0.99 µM	–
CCN(CC)CCCCCCOc1ccc(C(=O)c2ccccc2)cc1 [Compound 9, 4'-[[6-(diethylamino)hexyl]oxy]benzophenone]	–	1.02 µM	–
CN(C)CCCCCCOc1cccc(C(=O)/C=C/c2ccccc2)c1 [Compound 10, (E)-3'-[[6-(dimethylamino)hexyl]oxy]-3-phenylacrylophenone]	–	6.54 µM	–
CN(C)CCCCCCOc1cccc(C(=O)CCc2ccccc2)c1 [Compound 11]	–	2.83 µM	–
CN(C)CCCCCCOc1ccc(C(=O)c2ccc(F)cc2)cc1 [Compound 12, 4-[[6-(dimethylamino)hexyl]oxy]-4'-fluorobenzophenone]	–	0.524 µM	–
CN(C)CCCCCCOc1cccc(C(=O)c2ccccc2)c1 [Compound 13, 3-[(6-(dimethylamino)hexyl)oxy]benzophenone]	–	6.15 µM	–
CCN(CC)CCCCCCOc1ccc(C(=O)C#Cc2ccccc2)cc1 [Compound 14, 4'-[[6-(diethylamino)hexyl]oxy]-3-phenylpropiolophenone]	–	8.21 µM	–
CN(C)CCCCCCOc1ccc(C(=O)c2c(F)c(F)c(F)c(F)c2F)cc1 [Compound 15, 4'-[[6-(dimethylamino)hexyl]oxy]-2,3,4,5,6-pentafluorobenzophenone]	–	2.14 µM	–
CCCN(CCC)CCCCCCOc1ccc(C(=O)c2ccccc2)cc1 [Compound 16, 4-[[6-(dipropylamino)hexyl]oxy]benzophenone]	–	2.41 µM	–
O=C(c1ccccc1)c1ccc(OCCCCCCN2CCC2)cc1 [Compound 17, 4-[(6-(azetidinyl)hexyl)oxy]benzophenone]	5.75	–	–
CN(C)CCCCCCCOc1ccc(C(=O)c2ccccc2)cc1 [Compound 18, 4-[[7-(dimethylamino)heptyl]oxy]benzophenone]	–	0.353 µM	–
CN(C)CCCCCCCCOc1ccc(C(=O)c2ccccc2)cc1 [Compound 19]	–	1.19 µM	–
CN(C)CCCCCCCCCOc1ccc(C(=O)c2ccccc2)cc1 [Compound 20, 4-[[9-(dimethylamino)nonyl]oxy]benzophenone]	–	4.35 µM	–
CN(C)CCCCCCCCCCOc1ccc(C(=O)c2ccccc2)cc1 [Compound 21, 4-[[10-(dimethylamino)decyl]oxy]benzophenone]	–	5.24 µM	–
O=C(c1ccccc1)c1ccc(OCCCCCCN2CCCC2)cc1 [Compound 22, 4-[(6-(pyrrolidino)hexyl)oxy]benzophenone]	–	0.967 µM	–
CN(C)CCCCCCOc1ccc(CC(=O)c2ccccc2)cc1 [Compound 23, 2-[4-[[6-(dimethylamino)hexyl]oxy]phenyl]acetophenone]	–	0.56 µM	–

Compound	pIC50 [1]	IC50 [1]	other results
CNCCCCCCOc1ccc(C(=O)c2ccccc2)cc1 [Compound 24, 4-[[6-(methylamino)hexyl]oxy]benzophenone]	–	0.963 µM	–
Cc1cc(C(=O)c2ccccc2)ccc1OCCCCCCN(C)C [Compound 25, 4-[[6-(dimethylamino)hexyl]oxy]-3-methylbenzophenone]	–	0.56 µM	–
Cc1cccc(C(=O)c2ccc(OCCCCCCN(C)C)cc2)c1C [Compound 26, 4-[[6-(dimethylamino)hexyl]oxy]-2',3'-dimethylbenzophenone]	–	1.19 µM	–
CN(C)CCCCCCOc1ccc(C(=O)c2ccc(Cl)cc2Cl)cc1 [Compound 27, 4-[[6-(dimethylamino)hexyl]oxy]-2',4'-dichlorobenzophenone]	–	0.659 µM	–
CN(C)CCCCCCOc1ccc(C(=O)c2cc(Cl)cc(Cl)c2)cc1 [Compound 28, 4-[[6-(dimethylamino)hexyl]oxy]-3',5'-dichlorobenzophenone]	–	3.8 µM	–
CN(C)CCCCCCOc1ccc(C(=O)c2ccc([N+](=O)[O-])cc2)cc1 [Compound 29, 4-[[6-(dimethylamino)hexyl]oxy]-4'-nitrobenzophenone]	–	0.756 µM	–
CN(C)CCCCCCOc1ccc(C(=O)c2ccc(Cl)cc2Cl)cc1Cl [Compound 30, 4-[[6-(dimethylamino)hexyl]oxy]-2',3,4'-trichlorobenzophenone]	–	0.233 µM	–
C=CCN(C)CCCCCCOc1ccc(C(=O)c2ccccc2)cc1 [Compound 31, 4-[[6-(allylmethylamino)hexyl]oxy]benzophenone]	6.90	–	LD50 [2]: 1000 to 2000 mg/kg
C=CCN(C)CCCCCCOc1ccc(C(=O)Cc2ccccc2)cc1 [Compound 32, 4-[[6-(allylmethylamino)hexyl]oxy]-2-phenylacetophenone]	7.02	–	–
C=CCN(C)CCCCCCOc1ccc(C(=O)c2ccc(F)cc2)cc1 [Compound 33, 4-[[6-(allylmethylamino)hexyl]oxy]-4'-fluorobenzophenone]	7.08	–	–
C=CCN(C)CCCCCCOc1ccc(C(=O)c2ccccc2)cc1C [Compound 34, 4-[[6-(allylmethylamino)hexyl]oxy]-3-methylbenzophenone]	7.06	–	–
C=CCN(C)CCCCCCOc1ccc(C(=O)c2cccc(C)c2C)cc1 [Compound 35, 4-[[6-(allylmethylamino)hexyl]oxy]-2',3'-dimethylbenzophenone]	6.65	–	–
C=CCN(C)CCCCCCOc1ccc(C(=O)c2ccc(Cl)cc2Cl)cc1 [Compound 36, 4-[[6-(allylmethylamino)hexyl]oxy]-2',4'-dichlorobenzophenone]	6.88	–	–
C=CCN(C)CCCCCCOc1ccc(C(=O)c2cc(Cl)cc(Cl)c2)cc1 [Compound 37, 4-[[6-(allylmethylamino)hexyl]oxy]-3',5'-dichlorobenzophenone]	6.09	–	–
C=CCN(C)CCCCCCOc1ccc(C(=O)c2ccc([N+](=O)[O-])cc2)cc1 [Compound 38, 4-[[6-(allylmethylamino)hexyl]oxy]-4'-nitrobenzophenone]	7.00	–	–
C=CCN(C)CCCCCCOc1ccc(C(=O)c2ccccc2)cc1Cl [Compound 39, 4-[[6-(allylmethylamino)hexyl]oxy]-3-chlorobenzophenone]	7.19	–	–
C=CCN(C)CCCCCCOc1ccc(C(=O)c2ccc(Cl)cc2Cl)cc1Cl [Compound 40, 4-[[6-(allylmethylamino)hexyl]oxy]-2',3,4'-trichlorobenzophenone]	7.24	–	–
C=CCN(C)C/C=C/COc1ccc(C(=O)c2ccccc2)cc1 [Compound 41, trans-4-[[4-(allylmethylamino)-2-butenyl]oxy]benzophenone]	7.21	–	–
C=CCN(C)C/C=C/COc1ccc(C(=O)c2ccc(Cl)cc2Cl)cc1 [Compound 42, trans-4-[[4-(allylmethylamino)-2-butenyl]oxy]-2',4'-dichlorobenzophenone]	7.75	–	–
CN(C)C/C=C/COc1ccc(C(=O)c2ccccc2)cc1 [Compound 43, trans-4-[[4-(dimethylamino)-2-butenyl]oxy]benzophenone]	–	0.745 µM	–
CN(C)C/C=C/COc1ccc(C(=O)c2ccc(Cl)cc2Cl)cc1 [Compound 44, trans-4-[[4-(dimethylamino)-2-butenyl]oxy]-2',4'-dichlorobenzophenone]	–	0.178 µM	–
CC(=O)N1CCN(c2ccc(OCC3COC(Cn4ccnc4)(c4ccc(Cl)cc4Cl)O3)cc2)CC1 (stereo not drawn) [Ketoconazole, reference compound]	–	–	MIC in combination (Candida albicans; C. albicans B4, Compound 6 + Ketoconazole in combination): 0.155 µg/mL; MIC in combination (Candida albicans; C. albicans B5, Compound 6 + Ketoconazole in combination): 0.31 µg/mL; MIC in combination (Candida albicans; C. albicans H12, Compound 6 + Ketoconazole in combination): 0.155 µg/mL; MIC in combination (Candida albicans; C. albicans H29, Compound 6 + Ketoconazole in combination): 0.03 µg/mL; MIC in combination (Candida albicans; C. albicans H42, Compound 6 + Ketoconazole in combination): 0.155 µg/mL; MIC (Candida albicans; C. albicans B4): 5 µg/mL; MIC (Candida albicans; C. albicans B5): 5 µg/mL; MIC (Candida albicans; C. albicans H12): 5 µg/mL; MIC (Candida albicans; C. albicans H29): 0.25 µg/mL; MIC (Candida albicans; C. albicans H42): 10 µg/mL
CN(C/C=C/C#CC(C)(C)C)Cc1cccc2ccccc12 [Terbinafin, reference compound]	–	–	MIC in combination (Candida albicans; C. albicans B4, Compound 6 + Terbinafin in combination): 0.55 µg/mL; MIC in combination (Candida albicans; C. albicans B5, Compound 6 + Terbinafin in combination): 0.75 µg/mL; MIC in combination (Candida albicans; C. albicans H12, Compound 6 + Terbinafin in combination): 6.25 µg/mL; MIC in combination (Candida albicans; C. albicans H29, Compound 6 + Terbinafin in combination): 1.55 µg/mL; MIC in combination (Candida albicans; C. albicans H42, Compound 6 + Terbinafin in combination): 6.25 µg/mL; MIC (Candida albicans; C. albicans B4): 12.5 µg/mL; MIC (Candida albicans; C. albicans B5): 6.25 µg/mL; MIC (Candida albicans; C. albicans H12): 100 µg/mL; MIC (Candida albicans; C. albicans H29): 6.25 µg/mL; MIC (Candida albicans; C. albicans H42): 100 µg/mL
